# Experiments:
# [1] = system: FAK and PAX adhesion junctions in HT1080 cells; test: focal adhesion complexes, immunofluorescence in HT1080 cells; type: cell-based, Human; details: 50 μM overnight
# [2] = target: T1, MMP-9 interaction with α4/β1 integrin (Homo sapiens, UniProt P14780); test: co-immunoprecipitation of endogenous integrin with MMP-9 in HT1080 cells; type: cell-based; details: 50 μM
# T1 construct: expressed in transfected cells; host or cells: HT1080 cells (MMP-9 transfected; integrin endogenous)
# Description: (§1) HT1080 cells transiently co-transfected with tagged MMP-9 cDNAs were prepared as described above.
# [3] = system: EGFR-CD44 and EGFR-β1 integrin interaction; test: EGFR co-IP assay with CD44 and β1 integrin in HT1080 cells; type: cell-based, Human; details: 50 μM
# Description: HT1080 cells were treated with 50 μM 3c, 1a, 1f or DMSO alone. Cell lysates were collected and analyzed by a co-IP assay in which endogenous EGFR was captured with an anti-EGFR antibody and served as an input control. CD44 and β1 integrin were individually probed on the immunoblot.
# [4] = target: T2, MMP-9 association with CD44 and EGFR (Homo sapiens, UniProt P14780); test: co-immunoprecipitation of endogenous CD44 and EGFR with MMP-9 in HT1080 cells; type: cell-based; details: 50 μM overnight
# T2 construct: expressed in transfected cells; host or cells: HT1080 human fibrosarcoma cells (MMP-9 transfected; CD44 and EGFR endogenous)
# [5] = system: MMP-9 at the cell surface of HT1080 cells; test: MMP-9 cell surface localization, immunofluorescence in HT1080 cells; type: cell-based, Human
# Description: HT1080 cells were fixed in 4% paraformaldehyde then subsequently incubated with anti-MMP-9 in addition to anti-α4 and/or β1 integrin antibodies to monitor relative levels of localization of these proteins at the cell surface. The cells were counterstained with DAPI nuclear dye.
# [6] = target: T3, proMMP-9 (Homo sapiens, UniProt P14780); test: proMMP-9 tryptophan fluorescence blue shift binding assay
# T3 construct: Purified recombinant MMP-9 (50 nmol/L) or MMP-9/MMP-2PEX (50 nmol/L) was diluted in buffer
# Description: A blue shift in proMMP-9 tryptophan fluorescence was monitored to determine the binding affinity of all compounds. Binding of a test compound to MMP-9 was assayed by observing the change of tryptophan emission upon binding. Purified recombinant MMP-9 (50 nmol/L) or MMP-9/MMP-2PEX (50 nmol/L) was diluted in buffer (50 mmol/L Tris-HCl, 60 mmol/L KCl, and 0.05% Tween 20, pH 7.4) in the presence or absence of the test compound. As a control for protein stability and loss, an analogous buffer solution was added to the protein. The protein sample was excited at 280 nm and emission scans were collected from 290 to 400 nm, using slit widths of 0.3 nm on a QM 4/200SE spectrofluorimeter with double excitation and emission monochromators. Three emission scans were collected and averaged at each concentration. The Kd was determined using the Prism software package (GraphPad V5) to fit the data to Equation (Δ). λmax=(λmax^∞×[2])/(Kd+[2]) (A) in which λmax is the wavelength at which maximal fluorescence of the protein was observed.
# [7] = system: HT1080 cells; test: chorioallantoic membrane (CAM) assay, angiogenesis; type: in vivo, chicken embryo; details: 100 μM stock solution (final estimated 0.5 μM), 4-day incubation, vs DMSO and 1f
# Description: A CAM assay was carried out to evaluate angiogenic and invasive potential of HT1080 cells after treatment with 3c. […] After a 4-day incubation, neovascularization was imaged and quantified.
# [8] = system: proMMP9-mediated migration of COS-1 cells; test: two-dimensional collagen dot migration assay, COS-1 cells overexpressing proMMP-9; type: cell-based; details: 50 μM
# Description: This assay was initially used to test the efficacy of analogs at a single concentration, 50 μM.
# Cells were mixed with type I collagen solution with or without compound, dotted onto a 96-well plate, and allowed to migrate for 18 hours. They were then fixed, stained and scored for extent of migration.
# [9] = system: HT1080 cells; test: cell adhesion to collagen or fibronectin coated plate; type: cell-based, Human; details: 37° C. 30 min
# Description: A 96-well plate was coated with a thin layer of either collagen or fibronectin (5 μg/ml in PBS) substrate before use. HT1080 cells were then seeded onto wells and incubated at 37° C. for 30 min in the presence of various inhibitors. Wells were washed and cells were fixed in 4% paraformaldehyde and stained with DAPI. Images of each 96-well were microscopically captured and counted for the number of cells still adherent to the coated surface using automated computer software.
# [10] = system: proMMP-14-mediated migration of COS-1 cells; test: two-dimensional dot migration assay, COS-1 cells stably expressing proMMP-14; type: cell-based
# Description: (§2) To test whether compound 3c is specific for inhibiting only proMMP9-mediated migration, a two-dimensional dot migration assay was performed using COS-1 cells engineered to stably express vector control pQCXIP, proMMP-2, proMMP-9, or proMMP-14 cDNA vectors. An immunoblot was performed to confirm protein expression and proper localization of each MMP (MMP-2/-9 are secreted while MMP-14 is membrane bound).
# [11] = target: T3, proMMP-9; test: saturated transfer difference (STD) NMR, proMMP-9; type: binding; details: saturation of 1.12 ppm resonance
# Description: As an additional test of binding selectivity, saturated transfer difference (STD) NMR was performed with purified recombinant proMMP-2 and proMMP-9 protein. ProMMP-2 and proMMP-9 are highly similar in structure and function, belonging to the same subfamily of MMPs known as the type IV collagenases and/or gelatinases. Thus proMMP-2 constitutes the best control for testing the selectivity of the PEX-9 inhibitor. Selective saturation of the 1.12 ppm resonance (proMMP-2 and proMMP-9) was used for STD NMR spectra. […] Thus, binding specificity is maintained upon increasing binding affinity.
# [12] = system: Src^Tyr418, FAK^Tyr576/577, PAX^Tyr118 phosphorylation; test: phosphorylation of Src and downstream targets in HT1080 cells; type: cell-based, Human; details: 50 μM
# Description: as §1
# [13] = system: HT1080 fibrosarcoma cells; test: chronic toxicity in HT1080 cells; type: cell-based, Human; details: 100 μM, HT1080 cells re-treated every three days for nine days
# Description: (§3) Compound 3c was evaluated for acute cytotoxicity. COS-1 cells stably expressing either vector control or proMMP-9 cDNA were treated with 50 μM 3c for 24 hours. As negative and positive controls, cells were treated with DMSO alone or 100 nM staurosporine (STS), an apoptosis inducer, respectively. […] A non-statistically significant 8% decrease in cell growth occurred after treatment with 50 μM of compound 3c. These experiments were repeated in endogenous MMP-9 expressing HT1080 fibrosarcoma cells, which were analyzed for chronic toxicity (cells were re-treated every three days for a total of nine days).
# [14] = target: T4, MMP-9 dimer (Homo sapiens, UniProt P14780); test: MMP-9 dimer formation, Myc/HA co-immunoprecipitation in HT1080 cells; type: cell-based; details: 50 μM overnight, compared to control compound 1f
# T4 construct: expressed in transfected cells; host or cells: HT1080 human fibrosarcoma cells
# Excerpt: Human fibroscarcoma HT1080 cells were co-transfected with MMP-9 cDNAs tagged with either a Myc or HA tag as previously reported. […] Using Myc antibody for immunoprecipitation and HA antibody for immunoblotting, the formation of dimeric MMP-9 was monitored.
# [15] = system: proMMP9-mediated migration of COS-1 cells; test: two-dimensional dot migration assay, COS-1 cells stably expressing proMMP-9; type: cell-based
# Description: as §2
# [16] = system: COS-1 cells stably expressing vector control or proMMP-9; test: acute cytotoxicity in COS-1 cells; type: cell-based; details: 50 μM, 24 hours, non-statistically significant
# Description: as §3
# [17] = system: EGFR^Tyr1068, AKT^Ser473, Erk1/2^Thr202/Tyr204 phosphorylation; test: phosphorylation of EGFR and downstream targets in HT1080 cells; type: cell-based, Human; details: 50 μM overnight
# [18] = system: proMMP-2-mediated migration of COS-1 cells; test: two-dimensional dot migration assay, COS-1 cells stably expressing proMMP-2; type: cell-based
# Description: as §2
# T3 sequence (P14780 20-707 limits assumed): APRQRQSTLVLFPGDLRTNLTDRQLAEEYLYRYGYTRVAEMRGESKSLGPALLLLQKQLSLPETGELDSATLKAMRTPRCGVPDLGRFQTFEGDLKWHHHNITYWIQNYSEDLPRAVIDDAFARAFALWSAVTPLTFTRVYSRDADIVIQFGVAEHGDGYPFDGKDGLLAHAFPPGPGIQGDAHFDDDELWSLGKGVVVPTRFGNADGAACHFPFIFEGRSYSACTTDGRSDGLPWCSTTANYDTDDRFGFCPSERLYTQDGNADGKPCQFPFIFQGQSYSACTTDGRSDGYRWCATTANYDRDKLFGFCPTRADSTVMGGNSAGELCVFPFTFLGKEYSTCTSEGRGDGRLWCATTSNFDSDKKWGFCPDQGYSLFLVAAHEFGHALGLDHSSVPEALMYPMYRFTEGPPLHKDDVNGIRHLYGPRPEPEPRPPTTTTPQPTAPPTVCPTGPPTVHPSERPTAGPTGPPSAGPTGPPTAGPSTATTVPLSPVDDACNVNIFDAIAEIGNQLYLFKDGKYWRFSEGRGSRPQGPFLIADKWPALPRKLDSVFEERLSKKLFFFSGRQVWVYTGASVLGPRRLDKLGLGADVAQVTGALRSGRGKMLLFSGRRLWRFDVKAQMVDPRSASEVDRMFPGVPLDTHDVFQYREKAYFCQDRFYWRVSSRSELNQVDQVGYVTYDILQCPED
# T2 sequence (P14780 94-707): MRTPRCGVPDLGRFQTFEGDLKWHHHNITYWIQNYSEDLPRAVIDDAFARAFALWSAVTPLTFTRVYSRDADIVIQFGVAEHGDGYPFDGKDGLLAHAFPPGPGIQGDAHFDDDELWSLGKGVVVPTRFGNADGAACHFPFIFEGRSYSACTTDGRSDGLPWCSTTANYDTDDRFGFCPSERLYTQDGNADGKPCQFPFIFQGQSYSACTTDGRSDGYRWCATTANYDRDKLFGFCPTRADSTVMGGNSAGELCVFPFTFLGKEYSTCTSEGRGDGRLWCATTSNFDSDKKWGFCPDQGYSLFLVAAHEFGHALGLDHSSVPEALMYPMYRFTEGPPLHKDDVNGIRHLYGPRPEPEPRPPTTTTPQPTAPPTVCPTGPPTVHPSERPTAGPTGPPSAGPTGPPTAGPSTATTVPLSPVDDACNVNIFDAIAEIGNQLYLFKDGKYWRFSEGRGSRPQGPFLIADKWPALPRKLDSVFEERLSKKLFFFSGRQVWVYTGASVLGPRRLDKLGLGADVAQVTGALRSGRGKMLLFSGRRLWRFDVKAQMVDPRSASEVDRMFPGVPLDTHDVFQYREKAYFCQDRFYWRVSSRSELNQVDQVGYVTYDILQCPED
# T4 sequence (P14780 94-707): as above
# T1 sequence (P14780 94-707): as above
smiles,measurement,setting,value
"O=C(CCCSc1nc2c(c(=O)[nH]1)CCCC2)Nc1ccc(F)cc1 [Compound 3c, N-(4-Fluorophenyl)-4-(4-oxo-3,4,5,6,7,8-hexahydroquinazolin-2-ylthio)butanamide]",formation of FAK and PAX adhesion junctions,[1],A decrease in the formation of FAK and PAX adhesion junctions
same,endogenous α4β3 integrin co-immunoprecipitation,[2],reduced endogenous α4β3 integrin co-immunoprecipitation
same,interaction between EGFR-CD44 and EGFR-β1 integrin,[3],Decreased interaction between EGFR-CD44 and EGFR-β1 integrin
same,endogenous CD44 and EGFR co-immunoprecipitation,[4],reduced endogenous CD44 and EGFR co-immunoprecipitation
same,localization of MMP-9 on the cell surface,[5],loss of MMP-9 from the cell surface
same,binding to proMMP-9 relative to parent compound 1a,[6]; Kd compared with 1a,four times tighter
same,Kd,"[6]; binding to proMMP-9, tryptophan fluorescence",320 nM
same,angiogenic potential of HT1080 cells (neovascularization),[7],significantly reduced the angiogenic potential of HT1080 cells
same,effectiveness among the tested compounds in migration assay,[8],most effective
same,inhibition at 50 µM,"[8]; Chlorocebus aethiops, 18 hours",90 ± 2%
same,cellular adhesion,[9],inhibited cellular adhesion
same,inhibition of proMMP-14-mediated migration,[10],only inhibited proMMP9-mediated migration
same,STD NMR peaks in presence of proMMP-9,[11],STD peaks were observed
same,Src^Tyr418 phosphorylation and phosphorylation of FAK^Tyr576/577 and PAX^Tyr118,[12],reduced Src^Tyr418 phosphorylation
same,"cell death, chronic toxicity",[13],No cell death was observed
same,MMP-9 dimer formation,[14],significantly blocked MMP-9 dimer formation
same,effectiveness at inhibiting migration compared with 1a,[15],significantly more effective at inhibiting migration
same,inhibition of proMMP-9-mediated migration,[15],only inhibited proMMP9-mediated migration
same,decrease in cell growth,[16],8%
same,phosphorylation of EGFR^Tyr1068 and downstream targets AKT^Ser473 and Erk1/2^Thr202/Tyr204,[17],reduced phosphorylation
same,inhibition of proMMP-2-mediated migration,[18],only inhibited proMMP9-mediated migration
